We go through six compounds from ChEMBL document CHEMBL4425153, “Matched and mixed cap derivatives in the tetracyclic indole class of HCV NS5A inhibitors” (Bioorg Med Chem Lett, 2016).

For data set [1], the target named is T1, Nonstructural protein 5A (Hepatitis C virus) (UniProt Q5L478).
T1 sequence (whole entry): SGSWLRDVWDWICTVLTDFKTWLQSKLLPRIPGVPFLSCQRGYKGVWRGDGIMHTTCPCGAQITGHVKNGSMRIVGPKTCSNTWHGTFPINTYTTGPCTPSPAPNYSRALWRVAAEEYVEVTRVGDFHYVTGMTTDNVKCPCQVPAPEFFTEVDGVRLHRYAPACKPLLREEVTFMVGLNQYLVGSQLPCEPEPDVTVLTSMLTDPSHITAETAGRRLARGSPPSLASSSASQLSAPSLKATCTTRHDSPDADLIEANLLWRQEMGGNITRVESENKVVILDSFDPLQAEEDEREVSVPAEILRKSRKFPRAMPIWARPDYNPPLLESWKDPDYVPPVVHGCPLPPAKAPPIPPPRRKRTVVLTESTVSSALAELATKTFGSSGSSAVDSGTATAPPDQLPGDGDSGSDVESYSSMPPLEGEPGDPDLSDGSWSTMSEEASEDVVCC
As to the kind of experiment: Inhibition of wild type HCV genotype 2b NS5A assessed as reduction in viral RNA level by cell based real time PCR method. As to conditions: Hepatitis C virus subtype 2b. (In general: In qPCR the cycle at which signal appears reflects the starting amount.)

The subject of data set [2] is Nonstructural protein 5A (Hepatitis C virus), Q5L478 [UNDEFINED MUTATION]. As to the kind of experiment: Inhibition of HCV genotype 1a NS5A L31V mutant assessed as reduction in viral RNA level by cell based real time PCR method. The note with it: Hepatitis C virus subtype 1a.
The nature of data set [3]: Oral bioavailability in rat at 5 mg/kg. It is filed as ADME, organism-based. The note with it: in vivo.
Data set [4] is described as follows: Cmax in rat at 5 mg/kg. It is filed as ADME, organism-based. Set-up: dose 5 mg/kg. As to conditions: in vivo.
Data set [5] deals with T1, Nonstructural protein 5A (Hepatitis C virus). Description: Inhibition of wild type HCV genotype 1a NS5A assessed as reduction in viral RNA level by cell based real time PCR method. As to conditions: Hepatitis C virus subtype 1a.
Data set [6] can be described thus: Half life in rat at 5 mg/kg. Format: ADME, organism-based. As to conditions: in vivo.
For data set [7], the system named is T2, Nonstructural protein 5A (Hepatitis C virus), Q5L478 [Y93H].
T2 sequence (whole entry): T1 sequence (whole entry) with Y93H
As to the kind of experiment: Inhibition of HCV genotype 1a NS5A Y93H mutant assessed as reduction in viral RNA level by cell based real time PCR method. As to conditions: Hepatitis C virus subtype 1a.

Data set [8] can be described thus: AUC in rat at 5 mg/kg. It is filed as ADME, organism-based. As to conditions: in vivo.
Data set [9] is described as follows: Drug level in rat at 10 mg/kg measured at 1 hr. As to conditions: in vivo, read-out: Drug uptake. It is filed as ADME, organism-based.
Data set [10] is described as follows: Tmax in rat at 10 mg/kg. It is filed as ADME, organism-based. As to conditions: in vivo.
Data set [11] in a line: Cmax in rat at 10 mg/kg. Format: ADME, organism-based. Set-up: dose 10 mg/kg. As to conditions: in vivo.

Where a chain is given by its changes, count along the chain named.

In general, EC90 refers to the point of the concentration-response curve where the effect stands at 90%. As usually defined, the bioavailability is the share of a dose that reaches the circulation, judged against a reference dose that is usually intravenous. High values mean good availability, low ones poor availability. One may read the Cmax as the highest concentration seen after dosing. As usually defined, the half-life is the time needed for the level to fall by half in the phase considered. Low readings indicate rapid decline, high ones slow decline. As a reminder, the AUC is the area under the concentration-time curve, a measure of exposure. Turning to `COC(=O)N[C@H](C(=O)N1CCC[C@H]1c1ncc(-c2ccc3c(c2)O[C@@H](c2ccccc2)n2c-3cc3cc(-c4cnc([C@@H]5CCCN5C(=O)[C@@H](NC(=O)OC)C5CCOCC5)[nH]4)ccc32)[nH]1)C1CCOCC1`, the EC90 is 1.2 nM in data set [1], below 0.2 nM in [2], 0.06 nM in [5] and 23 nM in data set [7]. This compound registered a bioavailability in data set [3] of 0%. Besides, in data set [4], the peak level (Cmax) was 20 nM. The compound further gave a half-life in data set [6] of 2.4 h. This compound had an AUC in data set [8] of 4 nM·h.
In general, Tmax refers to the time at which the peak concentration occurs. Turning to `COC(=O)N[C@H](C(=O)N1CCC[C@H]1c1ncc(-c2ccc3c(c2)cc2n3[C@H](c3ccccc3)Oc3cc(-c4cnc([C@@H]5CCCN5C(=O)[C@@H](NC(=O)OC)C5CCOCC5)[nH]4)ccc3-2)[nH]1)C(C)C`, the EC90 in data set [1] turned out to be 4 nM; in [2], 0.4 nM; in [5], 0.061 nM; in data set [7] it was 11 nM. Besides, the concentration at 1 h in [9] was found to be 30 nM. Besides, the time to peak (Tmax) in [10] was found to be 0.75 h. The compound also gave a peak concentration (Cmax) in data set [11] of 31 nM.
Consider `COC(=O)N[C@@H](CC1CCOCC1)C(=O)N1CCC[C@H]1c1ncc(-c2ccc3c(c2)cc2n3[C@H](c3ccccc3)Oc3cc(-c4cnc([C@@H]5CCCN5C(=O)[C@@H](NC(=O)OC)C(C)C)[nH]4)ccc3-2)[nH]1`, for which the concentration for an effect of 90% (EC90) came to 8.9 nM in data set [1], 0.33 nM in data set [2], 0.014 nM in data set [5] and 24 nM in [7].
In the case of `COC(=O)N[C@H](C(=O)N1CCC[C@H]1c1nc(-c2ccc3c(c2)O[C@@H](c2ccccc2)n2c-3cc3cc(-c4c[nH]c([C@@H]5CCCN5C(=O)[C@@H](NC(=O)OC)C(C)C)n4)ccc32)c[nH]1)C(C)C`, the 90% effect concentration (EC90) in data set [1] stood at 11 nM; in [2], 1 nM; in [5], 0.006 nM; in data set [7], 28 nM.
Consider `CCN(CC)[C@@H](C(=O)N1CCC[C@H]1c1ncc(-c2ccc3c(c2)O[C@@H](c2ccccc2)n2c-3cc3cc(-c4cnc([C@@H]5CCCN5C(=O)[C@@H](c5ccccc5)N(CC)CC)[nH]4)ccc32)[nH]1)c1ccccc1`, for which the concentration for an effect of 90% (EC90) was 3.1 nM in data set [1], 0.6 nM in data set [2], 0.27 nM in data set [5] and above 100 nM in data set [7].
As to `CC[C@H](C)[C@H](NC(=O)OC)C(=O)N1CCC[C@H]1c1ncc(-c2ccc3c(c2)O[C@@H](c2ccccc2)n2c-3cc3cc(-c4cnc([C@@H]5CCCN5C(=O)[C@@H](NC(=O)OC)[C@@H](C)CC)[nH]4)ccc32)[nH]1`, the EC90 in [1] was above 100 nM; in data set [2], 1.8 nM; in data set [5], 0.011 nM; in data set [7], above 100 nM.
